According to PubChem BioAssay (NCI):
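Test compounds were applied to cells in 96-well plates for 48 hours at 5 doses. At the TGI there is no net growth.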

What was measured:
Test in all cases: inhibition of tumour cell growth, NCI panel, 48 h
RPMI-8226 leukemia = system: RPMI-8226 leukemia
BT-549 breast = system: BT-549 breast
PC-3 prostate = system: PC-3 prostate
A549 NSCLC = system: A549 NSCLC
SN12C renal = system: SN12C renal
COLO 205 colon = system: COLO 205 colon
SW-620 colon = system: SW-620 colon
CCRF-CEM leukemia = system: CCRF-CEM leukemia
HOP-62 NSCLC = system: HOP-62 NSCLC
MOLT-4 leukemia = system: MOLT-4 leukemia
OVCAR-8 ovarian = system: OVCAR-8 ovarian
OVCAR-5 ovarian = system: OVCAR-5 ovarian
A498 renal = system: A498 renal
IGROV1 ovarian = system: IGROV1 ovarian
SK-MEL-2 melanoma = system: SK-MEL-2 melanoma
OVCAR-3 ovarian = system: OVCAR-3 ovarian
OVCAR-4 ovarian = system: OVCAR-4 ovarian
HCT-15 colon = system: HCT-15 colon
NCI-H226 lung = system: NCI-H226 lung
SNB-19 CNS = system: SNB-19 CNS
NCI-H460 lung = system: NCI-H460 lung
T-47D breast = system: T-47D breast
UO-31 renal = system: UO-31 renal
SK-MEL-28 melanoma = system: SK-MEL-28 melanoma
SR leukemia = system: SR leukemia
HT29 colon = system: HT29 colon
MDA-N = system: MDA-N
DU-145 prostate = system: DU-145 prostate
ACHN renal = system: ACHN renal
RXF 393 renal = system: RXF 393 renal
NCI/ADR-RES ovarian = system: NCI/ADR-RES ovarian
CAKI-1 renal = system: CAKI-1 renal
HL-60(TB) leukemia = system: HL-60(TB) leukemia
SK-MEL-5 melanoma = system: SK-MEL-5 melanoma
LOX IMVI melanoma = system: LOX IMVI melanoma
EKVX NSCLC = system: EKVX NSCLC
MDA-MB-231 breast = system: MDA-MB-231 breast
NCI-H522 lung = system: NCI-H522 lung
HOP-92 NSCLC = system: HOP-92 NSCLC
SK-OV-3 ovarian = system: SK-OV-3 ovarian
HCT-116 colon = system: HCT-116 colon
M14 melanoma = system: M14 melanoma
SF-268 CNS = system: SF-268 CNS
UACC-257 melanoma = system: UACC-257 melanoma
SF-539 CNS = system: SF-539 CNS
K-562 leukemia = system: K-562 leukemia
NCI-H23 lung = system: NCI-H23 lung
UACC-62 melanoma = system: UACC-62 melanoma
TK-10 renal = system: TK-10 renal
U251 CNS = system: U251 CNS
SF-295 CNS = system: SF-295 CNS
MALME-3M melanoma = system: MALME-3M melanoma
MDA-MB-435 = system: MDA-MB-435
KM12 colon = system: KM12 colon
HS 578T breast = system: HS 578T breast
786-0 renal = system: 786-0 renal
SNB-75 CNS = system: SNB-75 CNS
MCF7 breast = system: MCF7 breast
HCC-2998 colon = system: HCC-2998 colon

CC(=O)OC12CC[N+]3(C)CCCCC3C1=Nc1ccccc12 (centres undefined)
TGI (RPMI-8226 leukemia): > 100 µM | TGI (BT-549 breast): > 100 µM | TGI (PC-3 prostate): > 100 µM | TGI (A549 NSCLC): > 100 µM | TGI (SN12C renal): > 100 µM | TGI (COLO 205 colon): > 100 µM | TGI (SW-620 colon): > 100 µM | TGI (CCRF-CEM leukemia): > 100 µM | TGI (HOP-62 NSCLC): > 100 µM | TGI (MOLT-4 leukemia): > 100 µM | TGI (OVCAR-8 ovarian): > 100 µM | TGI (OVCAR-5 ovarian): > 100 µM | TGI (A498 renal): > 100 µM | TGI (IGROV1 ovarian): > 100 µM | TGI (SK-MEL-2 melanoma): > 100 µM | TGI (OVCAR-3 ovarian): > 100 µM | TGI (OVCAR-4 ovarian): > 100 µM | TGI (HCT-15 colon): > 100 µM | TGI (NCI-H226 lung): > 100 µM | TGI (SNB-19 CNS): > 100 µM | TGI (NCI-H460 lung): > 100 µM | TGI (T-47D breast): > 100 µM | TGI (UO-31 renal): > 100 µM | TGI (SK-MEL-28 melanoma): > 100 µM | TGI (SR leukemia): > 100 µM | TGI (HT29 colon): > 100 µM | TGI (MDA-N): > 100 µM | TGI (DU-145 prostate): > 100 µM | TGI (ACHN renal): > 100 µM | TGI (RXF 393 renal): > 100 µM | TGI (NCI/ADR-RES ovarian): > 100 µM | TGI (CAKI-1 renal): > 100 µM | TGI (HL-60(TB) leukemia): > 100 µM | TGI (SK-MEL-5 melanoma): > 100 µM | TGI (LOX IMVI melanoma): > 100 µM | TGI (EKVX NSCLC): > 100 µM | TGI (MDA-MB-231 breast): > 100 µM | TGI (NCI-H522 lung): > 100 µM | TGI (HOP-92 NSCLC): > 100 µM | TGI (SK-OV-3 ovarian): > 100 µM | TGI (HCT-116 colon): > 100 µM | TGI (M14 melanoma): > 100 µM | TGI (SF-268 CNS): > 100 µM | TGI (UACC-257 melanoma): > 100 µM | TGI (SF-539 CNS): > 100 µM | TGI (K-562 leukemia): > 100 µM | TGI (NCI-H23 lung): > 100 µM | TGI (UACC-62 melanoma): > 100 µM | TGI (TK-10 renal): > 100 µM | TGI (U251 CNS): > 100 µM | TGI (SF-295 CNS): > 100 µM | TGI (MALME-3M melanoma): > 100 µM | TGI (MDA-MB-435): > 100 µM | TGI (KM12 colon): > 100 µM | TGI (HS 578T breast): > 100 µM | TGI (786-0 renal): > 100 µM | TGI (SNB-75 CNS): > 100 µM | TGI (MCF7 breast): > 100 µM

[N-]=[N+]=Nc1c(-c2ccccc2)c(=O)n(-c2ccccc2)c2ccccc12
TGI (RPMI-8226 leukemia): > 100 µM | TGI (BT-549 breast): > 100 µM | TGI (PC-3 prostate): > 100 µM | TGI (A549 NSCLC): > 100 µM | TGI (SN12C renal): > 100 µM | TGI (COLO 205 colon): > 100 µM | TGI (SW-620 colon): > 100 µM | TGI (CCRF-CEM leukemia): > 100 µM | TGI (HOP-62 NSCLC): > 100 µM | TGI (MOLT-4 leukemia): > 100 µM | TGI (OVCAR-8 ovarian): > 100 µM | TGI (A498 renal): > 100 µM | TGI (IGROV1 ovarian): > 100 µM | TGI (OVCAR-3 ovarian): > 100 µM | TGI (OVCAR-4 ovarian): > 100 µM | TGI (HCT-15 colon): > 100 µM | TGI (NCI-H226 lung): > 100 µM | TGI (NCI-H460 lung): > 100 µM | TGI (T-47D breast): 82.2 µM | TGI (UO-31 renal): > 100 µM | TGI (SK-MEL-28 melanoma): > 100 µM | TGI (HCC-2998 colon): > 100 µM | TGI (SR leukemia): > 100 µM | TGI (HT29 colon): > 100 µM | TGI (MDA-N): > 100 µM | TGI (DU-145 prostate): > 100 µM | TGI (ACHN renal): > 100 µM | TGI (RXF 393 renal): > 100 µM | TGI (NCI/ADR-RES ovarian): > 100 µM | TGI (HL-60(TB) leukemia): > 100 µM | TGI (LOX IMVI melanoma): > 100 µM | TGI (EKVX NSCLC): 48.8 µM | TGI (MDA-MB-231 breast): > 100 µM | TGI (NCI-H522 lung): 97.1 µM | TGI (HOP-92 NSCLC): > 100 µM | TGI (SK-OV-3 ovarian): > 100 µM | TGI (HCT-116 colon): > 100 µM | TGI (M14 melanoma): > 100 µM | TGI (SF-268 CNS): 62.3 µM | TGI (UACC-257 melanoma): > 100 µM | TGI (SF-539 CNS): > 100 µM | TGI (K-562 leukemia): > 100 µM | TGI (NCI-H23 lung): > 100 µM | TGI (UACC-62 melanoma): > 100 µM | TGI (TK-10 renal): > 100 µM | TGI (U251 CNS): > 100 µM | TGI (SF-295 CNS): > 100 µM | TGI (MALME-3M melanoma): > 100 µM | TGI (MDA-MB-435): > 100 µM | TGI (KM12 colon): > 100 µM | TGI (HS 578T breast): > 100 µM | TGI (786-0 renal): > 100 µM | TGI (SNB-75 CNS): > 100 µM | TGI (MCF7 breast): > 100 µM

O=S(=O)(O)n1ccnc1 (tested in a mixture with another compound)
TGI (RPMI-8226 leukemia): > 100 µM | TGI (BT-549 breast): > 100 µM | TGI (PC-3 prostate): > 100 µM | TGI (A549 NSCLC): > 100 µM | TGI (SN12C renal): > 100 µM | TGI (COLO 205 colon): > 100 µM | TGI (SW-620 colon): > 100 µM | TGI (HOP-62 NSCLC): > 100 µM | TGI (MOLT-4 leukemia): > 100 µM | TGI (OVCAR-8 ovarian): > 100 µM | TGI (OVCAR-5 ovarian): > 100 µM | TGI (A498 renal): > 100 µM | TGI (IGROV1 ovarian): > 100 µM | TGI (SK-MEL-2 melanoma): > 100 µM | TGI (OVCAR-3 ovarian): > 100 µM | TGI (OVCAR-4 ovarian): > 100 µM | TGI (HCT-15 colon): > 100 µM | TGI (NCI-H226 lung): > 100 µM | TGI (SNB-19 CNS): > 100 µM | TGI (NCI-H460 lung): > 100 µM | TGI (T-47D breast): > 100 µM | TGI (UO-31 renal): > 100 µM | TGI (SK-MEL-28 melanoma): > 100 µM | TGI (SR leukemia): > 100 µM | TGI (HT29 colon): > 100 µM | TGI (MDA-N): > 100 µM | TGI (DU-145 prostate): > 100 µM | TGI (ACHN renal): > 100 µM | TGI (RXF 393 renal): > 100 µM | TGI (NCI/ADR-RES ovarian): > 100 µM | TGI (CAKI-1 renal): > 100 µM | TGI (HL-60(TB) leukemia): > 100 µM | TGI (SK-MEL-5 melanoma): > 100 µM | TGI (LOX IMVI melanoma): > 100 µM | TGI (EKVX NSCLC): > 100 µM | TGI (MDA-MB-231 breast): > 100 µM | TGI (NCI-H522 lung): > 100 µM | TGI (HOP-92 NSCLC): > 100 µM | TGI (SK-OV-3 ovarian): > 100 µM | TGI (HCT-116 colon): > 100 µM | TGI (M14 melanoma): > 100 µM | TGI (SF-268 CNS): > 100 µM | TGI (UACC-257 melanoma): > 100 µM | TGI (SF-539 CNS): > 100 µM | TGI (K-562 leukemia): > 100 µM | TGI (NCI-H23 lung): > 100 µM | TGI (UACC-62 melanoma): > 100 µM | TGI (TK-10 renal): > 100 µM | TGI (U251 CNS): > 100 µM | TGI (SF-295 CNS): > 100 µM | TGI (MALME-3M melanoma): > 100 µM | TGI (MDA-MB-435): > 100 µM | TGI (KM12 colon): > 100 µM | TGI (HS 578T breast): > 100 µM | TGI (786-0 renal): > 100 µM | TGI (SNB-75 CNS): > 100 µM | TGI (MCF7 breast): > 100 µM
